The values below come from patent US20230226176A1, “NOVEL IMMUNE ADJUVANT AND VACCINE COMPOSITION INCLUDING THE SAME” (REPUBLIC OF KOREA (ANIMAL AND PLANT […]), priority 2020, published 2023).

Where only a bound is given, the exact number is not on record here.

Experiment [1] concerns SP antibodies in serum. The arrangement: species or system C57BL/6 mice. As to conditions: mouse, in vivo.
Experiment [2] has as its system FMDV. The arrangement: species or system C57BL/6 mice. As to conditions: mouse, in vivo.
The test system of experiment [3] is porcine naive PBMCs. Format: cell-based, pigs.
Experiment [4] deals with porcine Mo-DCs. Format: cell-based, pigs.
The subject of experiment [5] is porcine PBMCs. Format: cell-based, pigs. The settings on record: 12 hours.
Experiment [6] has as its system porcine Mo-DCs. Description: Inhibition of phagocytosis by cytochalasin D, cytokine ELISA in Mo-DCs. As to conditions: 5 μg/mL CytD 45 min before 1 μg/mL antigen. In general terms: An ELISA detects its analyte on a solid surface through an enzyme-linked reagent.
For experiment [7], the system named is porcine Mo-MΦs. Nature of the experiment: Inhibition of phagocytosis by cytochalasin D, cytokine ELISA in Mo-MΦs.
Experiment [8] concerns porcine Mo-MΦs. Format: cell-based, pigs.

Consider `C=C(C)CCOP(=O)([O-])OP(=O)([O-])[O-].[Li+].[Li+].[Li+]` [IPP (I), Isopentenyl pyrophosphate trilithium salt], for which, in experiment [1], the “antibody titers measured by SP-O ELISA compared to the control” value (“antibody titers … compared to the control” for short) is reported as “significantly higher”. For the same molecule, in experiment [2], the VN titers entry was “highest” and the “increase of neutralizing antibody (VN titers)” value (“increase” below) was “approximately 100 fold”. Also, the “Cell proliferation, rank order” value in experiment [3] is reported as “>antigen alone”.
TNFα: in experiment [4], the IL-1β came out at 432.97, the IL-6 was 201.33, the IL-10 was determined as 10.85 and the IL-12/23p40 worked out at 135.67. The molecule further yielded a TNFα in experiment [4] of 74.00.
Turning to `Nc1nc2ncc(C=O)nc2c(=O)[nH]1` [6-Formylpterin (F), 6-formylpterin], in experiment [1], the “antibody titers measured by SP-O ELISA” value is “increased”. Besides, the VN titers result in experiment [2] was “high levels”. Besides, in experiment [3], the “Cell proliferation, rank order” value is “>antigen+T cell agonist (R)”.
Regarding `CCCCCCCCCCCCCCCCCCCCCCCCCC(=O)N[C@@H](CO[C@H]1O[C@H](CO)[C@H](O)[C@H](O)[C@H]1O)[C@H](O)[C@H](O)CCCCCCCCCCCCCC` [α-Gal (G), α-galactosyl ceramide], in experiment [1], the “antibody titers … compared to the control” value is given as “significantly higher”. Moreover, in experiment [2], the VN titers result is listed as “highest” and the “increase” value is “approximately 100 fold”. Further, the “Cell proliferation, rank order” value in experiment [3] was “>antigen+MAIT cell agonist (F)”. Also, the “IL23A and IL23R expression” value in experiment [5] is “specifically highly expressed”.
For `C=C1[C@@H](C)[C@H]2[C@H](Cc3ccccc3)NC(=O)[C@]23[C@H](OC(C)=O)/C=C/[C@@](C)(O)C(=O)[C@@H](C)C/C=C/[C@H]3[C@@H]1O` [CytD, cytochalasin D], the “expression of cytokine when antigen is co-cultured after CytD treatment” value in experiment [6] and in experiment [7] (5 μg/mL CytD 45 min before 1 μg/mL antigen) was “significantly suppressed” in each case. Moreover, the “IL-10 expression after CytD treatment” value in experiment [7] (not significantly different from pretreatment levels) is listed as “slightly suppressed”.
Turning to `C/C(=C\COP(=O)([O-])OP(=O)([O-])[O-])CO.[Li+].[Li+].[Li+]` [HMP (H), (E)-1-hydroxy-2-methyl-2-butenyl 4-pyrophosphate lithium salt], the “antibody titers … compared to the control” value in experiment [1] is on record as “significantly higher”. In addition, the “increase” value in experiment [2] is on record as “approximately 100 fold”. Also, the “Cell proliferation, rank order” value in experiment [3] is listed as “>antigen+iNKT cell agonist (G)”.

B1: IL-4: rpIL-4 (R&D Systems, 20 ng/mL) for M2 MΦ polarization (protein, UniProt Q04745 25-133, looked up)
Interleukin-4: HKCDITLQEIIKTLNILTARKNSCMELPVTDVFAAPENTTEKETFCRASTVLRHIYRHHTCMKSLLSGLDRNLSSMANMTCSVHEAKKSTLKDFLERLKTIMKEKYSKC
In experiment [8], B1 gave an IL-1β of 223.43, an IL-10 of 1.88 and an IL-12/23p40 of 29.00.
